# According to patent publication US12365651B2, “Use of pirfenidone and derivatives for modulation of B lymphocyte activity and organ protection from acute tissue damage” (Washington University, priority 2017, dated 2025):
# Experiments:
# naïve WT hearts = experiment: Flow cytometry of naïve WT hearts after Pirfenidone for 1 week; type: in vivo, mouse; settings: Pirfenidone 1 week
# Source text: Accordingly, we performed FACS analysis 4 days after DT injection.
# In order to administer Pirfenidone, mice were fed powdered chow mixed with Pirfenidone (eNovation Chemicals, Bridgewater, NJ, USA, Cat #D404655) at 0.5% in weight or powdered chow alone. […] Unless specifically noted, mice were switched to a diet enriched with Pirfenidone 3 days prior to DT-induced injury or I/R-injury, and maintained on this diet throughout the duration of the experiments. In parallel studies, we fed mice normal chow prior to I/R injury and then administered Pirfenidone acutely at the time of cardiac injury. For these latter studies, mice were injected i.p. with diluent (200 μL phosphate-buffered solution [PBS]) or i.p. with Pirfenidone (200 μL of Pirfenidone [5 mg/mL] in PBS) after reperfusion and the morning after I/R injury (2 injections total). They were switched to Pirfenidone-enriched diet or control diet the evening of I/R injury and maintained on the same diet until completion of the experiment.
# For flow cytometry experiments, mice were euthanized in a CO2 chamber and the hearts were perfused with cold PBS, carefully dissected from extracardiac tissue under a stereo microscope, finely minced, suspended in 3 ml of DMEM, and then digested with 120 U of DNAse (Sigma), 180 U of hyaluronidase (Sigma) and 1350 U of Collagenase (Sigma) for 60 minutes at 37Co. The digested material was filtered through 40 μm filters and pelleted by centrifugation (250×g for 3 minutes at 4° C.) in HBSS supplemented with 2% FCS+0.2% bovine serum albumin (BSA). Red blood cells were lysed in ACK lysis buffer (Invitrogen) for 15′ on ice and the remaining cells were resuspended in 300 μL of FACS buffer (PBS with 2% FCS and 2 mM EDTA). Cultured cells were collected for FACS analysis as described above and resuspended in 300 μL of FACS buffer. Samples were labeled with the fluorescently conjugated antibodies outlined in the table below. Cells were stained for 45 minutes on ice, and washed in FACS buffer prior to analysis. All antibodies from Biolegend were used at 0.2 μL per 300 μL sample, while antibodies from BD biosciences were used at 0.4 μL per 300 μL sample. FACS was performed on Beckton Dickinson analyzers (LSRII, Canto, X20 or Fortessa). Compensation controls were generated using UltraComp ebeads (Invitrogen, Carlsbad, CA, USA) and verified on single color control samples obtained staining primary splenocytes. For flow cytometry experiments that involved the DT injury model, we collected serum at the time of terminal sacrifice for quantification of troponin. […] Cell sorting was performed using a FACSAria sorting instrument (Beckton Dickinson) at the Washington University Department of Pathology Flow Cytometry and Sorting Core.
# [1] = tested on: purified B lymphocytes harvested from the spleen; experiment: CD86 on cultured purified splenic B lymphocytes; type: cell-based, mouse
# Source text: We next sought to determine whether the response of B cells to necrotic cytosolic extracts and LPS were cell autonomous, by repeating the above in vitro experiments in purified B lymphocytes harvested from the spleen. […] In contrast, necrotic cytosolic extracts induced a small, non-statistically significant (p=0.62) upregulation of CD19+ CD86high B cells when compared to diluent treated cells (FIG. 10G). Similar results were obtained in splenic B lymphocytes from TIRAP−/− animals (FIG. 10H).
# Peritoneal derived inflammatory cells (PDICs) were harvested from the peritoneal cavity of thioglycolate-stimulated wild-type and TIRAP−/− deficient mice. PDIC cultures contain an admixture of inflammatory cells, including CD19+ B cells (40). TIRAP deficient mice were a gift from Dr. Ruslan Medzhitov (Yale University, New Haven, CT). PDICs were harvested on day 4 after i.p. injection of 1 ml of thioglycolate medium (Millipore, Billerica, MA, USA). Mice were euthanized, and the peritoneal cavity was washed 3-4 times with 3 mLs of Dulbecco's modified medium containing 10% fetal calf serum. A 3 mL syringe with an 18-gauge needle was used to inject the peritoneal cavity and retrieve the medium containing PDICs. Harvested cells were centrifuged at 250 g for 5 minutes, re-suspended in 5 mL of media and then filtered through a 40 μm strainer. […]
smiles,measurement,setting,value
"Cc1ccc(=O)n(-c2ccccc2)c1 [Pirfenidone, 5 methyl-1-phenyl-2-[H] pyridone]",number of CD45+ cells/mg tissue,naïve WT hearts; p=0.53,no significant effect
same,Ly6C+CD64 low/− monocytes,naïve WT hearts; p=0.81,no significant effect
same,CD64+Ly6Clow/− macrophages,naïve WT hearts; p=0.82,no significant effect
same,Ly6G+ neutrophils,naïve WT hearts; p=0.82,no significant effect
same,CD19+ B-lymphocytes,naïve WT hearts; p=0.94,no significant effect
same,LPS induced expression of CD86 on B cells,"[1]; B lymphocytes from the spleen, 24 hours, LPS + 0.5% pirfenidone",significantly reduced
same,LPS provoked increase in CD19+ CD86high cells,"[1]; purified splenic B lymphocytes, wild type, LPS",partially sensitive to inhibition
